According to patent publication US20220330548A1, “Peptides with Phytosanitary Activities” (Universita' Degli Studi Di Padova, priority 2021, published 2022):
[ ]: non-standard residue; d: D form. The star is where a group is joined. Octanoyl = CCCCCCCC(=O)*; Aib = CC(C)(N)C(=O)O

Key:
[1] = tested on: Plasmopara viticola; test: Infection by P. viticola on vine leaf discs; format: in vivo, Plasmopara viticola on vine leaf discs (cv. Glera); conditions: peptide 50 μM, 12 days after inoculation
Procedure: Infection tests were performed on vine leaf disks (cv. Glera) of 1 cm in diameter. Twenty leaf discs obtained from randomly collected leaves from different plants were placed with the lower side facing upwards on moistened sterile paper placed in Petri dishes (15 cm diameter). Approximately 0.1 mL of each aqueous solution containing the peptide (50 μM) was distributed on each leaf disc. Aqueous suspensions of P. viticola sporangia, collected from infected vine plants, were diluted to obtain 3-5×10^5 sporangia/mL and distributed on the leaf discs. The plates containing the leaf discs were incubated in the dark at room temperature (22-23° C.). The incidence was calculated 12 days after inoculation as the ratio of the number of sporulating discs to the total number of discs inoculated. Control plates contained water-treated leaf discs. Two or three plates were used for each treatment. The data obtained were statistically analysed by applying the Anova and Bonferroni-Holmes one-way test.

[2] = tested on: Botrytis cinerea; format: cell-based, Botrytis cinerea (strain PM10)
[3] = tested on: Fusarium graminearum; set-up: species or system Fusarium graminearum on ears of wheat; conditions: in vivo
[4] = tested on: Fusarium graminearum; format: cell-based
[5] = tested on: Pyricularia oryzae; set-up: species or system Pyricularia oryzae strain IT10 on barley leaves; conditions: in vivo
[6] = tested on: Pyricularia oryzae; format: cell-based
[7] = tested on: Pyricularia oryzae; format: cell-based, Pyricularia oryzae (strain IT10)
[8] = tested on: Fusarium graminearum; format: cell-based, Fusarium graminearum (strain 8/1)

**Q.** For “1-octanoyl-Aib-Gly-Leu-Aib-Gly-Gly-Leu-Aib-Lys(HCl)-Ile-Leu-NH2 (Octanoyl-[Aib]GL[Aib]GGL[Aib]KIL-NH2; also: Lys9 as HCl salt) [SEQ. ID. No. 6]”, which “incidence of Plasmopara viticola infection on vine leaf discs” value [1] is on record?
**A.** significantly decreases the P. viticola infection

**Q.** What does the source list for “1-octanoyl-Aib-Gly-Leu-Aib-Gly-Gly-Leu-Aib-Lys(HCl)-Ile-Lol [SEQ. ID. No. 5]”?
**A.** decrease of growth of Botrytis cinerea compared to the untreated control [2]: at least 95%; incidence of Plasmopara viticola infection on vine leaf discs [1]: significantly decreases the P. viticola infection

**Q.** Which “decrease of infection (infected spikelets) in treated ears compared to untreated control ears” value [3] does the source give for “1-octanoyl-Aib-Lys(HCl)-Leu-Aib-Lys(HCl)-Gly-Leu-Aib-Lys(HCl)-Ile-Lol [SEQ. ID. No. 1]” here?
**A.** at least 95%

**Q.** And the “further decrease of infection compared with treatment with PEP4 and PEP4-rink” value [3]?
**A.** 10-30%

**Q.** What about the “protection of the ear of wheat against infection caused by Fusarium graminearum” value [3] of the same substance?
**A.** protects the ear of wheat against infection caused by Fusarium graminearum

**Q.** What about the “protection of the ear of wheat compared with the known peptide PEP4” value [3] of the same substance?
**A.** greater

**Q.** What about the “microscopic observation of Fusarium graminearum after treatment” value [4] of the same substance?
**A.** germination is inhibited and the cytoplasm is agglutinated

**Q.** And the “decrease of infected (lesion) area of barley leaves compared to control leaves” value [5]?
**A.** at least 95%

**Q.** What about the “microscopic observation of Pyricularia oryzae spores after treatment” value [6] of the same substance?
**A.** germination is inhibited and the cytoplasm is agglutinated

**Q.** What about the “viability of Pyricularia oryzae spores (autofluorescence of agglutinated cytoplasm)” value [6] of the same substance?
**A.** the cells are no longer viable

**Q.** Which results are given for “1-octanoyl-Leu-Aib-Lys(HCl)-Ile-Leu-NH2 [SEQ. ID. No. 10]”?
**A.** decrease of growth of Botrytis cinerea compared to the untreated control [2]: at least 95%; decrease of growth of Pyricularia oryzae compared to the untreated control [7]: at least 95%; decrease of growth of Fusarium graminearum compared to the untreated control [8]: at least 95%
